Assay results as given in ChEMBL document CHEMBL1201862, “PubChem BioAssay data set” (2004).
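These data come from cells grown in 96-well plates and exposed to compound for 48 hours at five concentrations. GI50 is the concentration that inhibits growth by half.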 Activity calls are given as the source filed them. Rule as the data show it: active = GI50 up to about 1.1 µM and inactive = higher.

Legend:
Experiment in all cases: NCI anticancer screen, dose series, 48 h
ACHN = tested on: ACHN
COLO 205 = tested on: COLO 205
EKVX = tested on: EKVX
HOP-92 = tested on: HOP-92
K562 = tested on: K562
MDA-MB-231 = tested on: MDA-MB-231
MOLT-4 = tested on: MOLT-4
Malme-3M = tested on: Malme-3M
OVCAR-3 = tested on: OVCAR-3
PC-3 = tested on: PC-3
SK-MEL-28 = tested on: SK-MEL-28
SK-MEL-2 = tested on: SK-MEL-2
SN12C = tested on: SN12C
SW-620 = tested on: SW-620
TK-10 = tested on: TK-10
HOP-62 = tested on: HOP-62
MDA-MB-435 = tested on: MDA-MB-435
RPMI-8226 = tested on: RPMI-8226
SR = tested on: SR
NCI-H522 = tested on: NCI-H522

Measured: GI50

CC(=O)OCc1cc(=O)n2c([nH]c3ccccc32)c1C#N
inactive: ACHN 52.4 µM | COLO 205 53.3 µM | EKVX 72.3 µM | HOP-92 84.3 µM | K562 65.9 µM | MDA-MB-231 48.4 µM | MOLT-4 47.1 µM | Malme-3M 89.1 µM | OVCAR-3 43.2 µM | PC-3 40.6 µM | SK-MEL-28 82.6 µM | SK-MEL-2 76.6 µM | SN12C 67 µM | SW-620 96.6 µM | TK-10 82.4 µM

Cc1n[nH]c(=O)n1/N=C/c1cccs1
inactive: ACHN > 100 µM | COLO 205 > 100 µM | EKVX > 100 µM | HOP-62 > 100 µM | K562 > 100 µM | MDA-MB-231 > 100 µM | MDA-MB-435 > 100 µM | Malme-3M > 100 µM | OVCAR-3 > 100 µM | PC-3 > 100 µM | RPMI-8226 > 100 µM | SK-MEL-28 > 100 µM | SK-MEL-2 > 100 µM | SN12C > 100 µM | SW-620 > 100 µM

O/N=C/[C@H]1COC2(CCCCC2)O1
inactive: ACHN > 100 µM | COLO 205 > 100 µM | EKVX > 100 µM | HOP-62 > 100 µM | HOP-92 31.6 µM | K562 > 100 µM | MDA-MB-231 > 100 µM | MDA-MB-435 > 100 µM | MOLT-4 > 100 µM | Malme-3M > 100 µM | OVCAR-3 > 100 µM | PC-3 > 100 µM | RPMI-8226 > 100 µM | SK-MEL-28 > 100 µM | SK-MEL-2 > 100 µM | SN12C > 100 µM | SW-620 > 100 µM | TK-10 > 100 µM

CCOC(=O)C1(C)CCCc2sc(N)c(C#N)c21 (configuration not stated)
inactive: ACHN > 100 µM | COLO 205 > 100 µM | EKVX > 100 µM | HOP-62 > 100 µM | HOP-92 > 100 µM | K562 > 100 µM | MDA-MB-231 > 100 µM | MOLT-4 > 100 µM | Malme-3M > 100 µM | PC-3 > 100 µM | RPMI-8226 > 100 µM | SK-MEL-28 > 100 µM | SK-MEL-2 > 100 µM | SN12C > 100 µM | SR > 100 µM | SW-620 > 100 µM | TK-10 > 100 µM

Cn1c(COC(=O)NC2CCCCC2)c(COC(=O)NC2CCCCC2)c2ccc3cc(Cl)c(Cl)cc3c21
inactive: ACHN 14.3 µM | COLO 205 11.7 µM | EKVX 27.7 µM | HOP-92 4.88 µM | K562 3.61 µM | MDA-MB-231 10.2 µM | MDA-MB-435 17.6 µM | MOLT-4 14.8 µM | Malme-3M 6.43 µM | OVCAR-3 15.1 µM | PC-3 15.3 µM | SK-MEL-28 12.5 µM | SK-MEL-2 14.1 µM | SN12C 11.7 µM | SW-620 6.79 µM | TK-10 16.7 µM

CN(C)C(=O)C(F)(F)C(c1ccccc1Br)C1C(=O)N(C)C(=O)N(C)C1=O (configuration not stated)
inactive: ACHN > 100 µM | COLO 205 > 100 µM | EKVX > 100 µM | HOP-62 > 100 µM | HOP-92 > 100 µM | K562 > 100 µM | MDA-MB-231 > 100 µM | MDA-MB-435 > 100 µM | Malme-3M > 100 µM | OVCAR-3 > 100 µM | PC-3 > 100 µM | RPMI-8226 > 100 µM | SK-MEL-28 > 100 µM | SK-MEL-2 > 100 µM | SW-620 > 100 µM | TK-10 > 100 µM

CC(=O)OC12c3ccccc3C(c3ccccc31)C1C(=O)N(c3ccccn3)C(=O)C12 (configuration not stated)
inactive: COLO 205 64.6 µM | EKVX > 100 µM | HOP-62 65.6 µM | K562 39.1 µM | MDA-MB-231 77.8 µM | MOLT-4 32.8 µM | Malme-3M 31.8 µM | OVCAR-3 28.4 µM | PC-3 47.9 µM | RPMI-8226 27.1 µM | SK-MEL-28 85.9 µM | SN12C 81.1 µM | SW-620 > 100 µM | TK-10 > 100 µM

C=CCOC(=O)CC[N+]1=CCC(c2ccccc2)(c2ccccc2)O1
inactive: ACHN > 100 µM | COLO 205 > 100 µM | EKVX > 100 µM | HOP-62 > 100 µM | HOP-92 > 100 µM | K562 > 100 µM | MDA-MB-231 > 100 µM | MDA-MB-435 > 100 µM | MOLT-4 > 100 µM | NCI-H522 > 100 µM | OVCAR-3 > 100 µM | PC-3 > 100 µM | SK-MEL-28 > 100 µM | SK-MEL-2 > 100 µM | SN12C > 100 µM | SW-620 > 100 µM | TK-10 > 100 µM

CN(C)c1ccc(-c2[nH]c(=O)c3ccccc3[n+]2C)cc1
inactive: ACHN 62.5 µM | COLO 205 62.2 µM | EKVX 88.9 µM | HOP-62 > 100 µM | HOP-92 60.7 µM | K562 58.6 µM | MDA-MB-231 > 100 µM | MDA-MB-435 63.8 µM | MOLT-4 51.9 µM | Malme-3M 47.6 µM | RPMI-8226 63.2 µM | SK-MEL-28 > 100 µM | SN12C > 100 µM | SR 49.4 µM | SW-620 > 100 µM | TK-10 > 100 µM

O=c1[nH]nc(-c2cccc([N+](=O)[O-])c2)[nH]1
inactive: ACHN > 100 µM | COLO 205 > 100 µM | EKVX 8.34 µM | HOP-62 > 100 µM | K562 > 100 µM | MDA-MB-435 > 100 µM | MOLT-4 > 100 µM | Malme-3M > 100 µM | NCI-H522 > 100 µM | OVCAR-3 > 100 µM | PC-3 > 100 µM | RPMI-8226 > 100 µM | SK-MEL-28 > 100 µM | SK-MEL-2 > 100 µM | SN12C > 100 µM | SR > 100 µM | SW-620 > 100 µM | TK-10 > 100 µM

Cc1nn(-c2ccccc2)c2nc(S)cnc12
inactive: EKVX > 100 µM | HOP-62 > 100 µM | HOP-92 > 100 µM | K562 > 100 µM | MDA-MB-435 > 100 µM | MOLT-4 > 100 µM | Malme-3M > 100 µM | NCI-H522 > 100 µM | OVCAR-3 > 100 µM | PC-3 > 100 µM | RPMI-8226 89.5 µM | SK-MEL-28 > 100 µM | SK-MEL-2 > 100 µM | SN12C > 100 µM | SR > 100 µM | SW-620 > 100 µM | TK-10 > 100 µM

Cc1[nH]n(-c2nc3c(c(=O)[nH]2)CCC3)c(=O)c1CCO
inactive: ACHN > 100 µM | COLO 205 > 100 µM | EKVX > 100 µM | HOP-62 > 100 µM | K562 > 100 µM | MDA-MB-231 > 100 µM | MDA-MB-435 > 100 µM | MOLT-4 > 100 µM | Malme-3M > 100 µM | NCI-H522 > 100 µM | OVCAR-3 > 100 µM | PC-3 > 100 µM | RPMI-8226 > 100 µM | SK-MEL-28 > 100 µM | SK-MEL-2 > 100 µM | SN12C > 100 µM | SW-620 > 100 µM | TK-10 > 100 µM
